In patent US10093629B2, “Heterocyclic compounds and their use as retinoid-related orphan receptor (ROR) gamma-T inhibitors” (Takeda Pharmaceutical Company Limited, priority 2014, dated 2018) one finds inhibition data, which are given here for eight compounds.

Like-named read-outs stand apart in the source and are kept apart here.

The target of experiment [1] is T1, RORγt (Homo sapiens, UniProt P51449).
T1 sequence (P51449 1-497 isoform P51449-2): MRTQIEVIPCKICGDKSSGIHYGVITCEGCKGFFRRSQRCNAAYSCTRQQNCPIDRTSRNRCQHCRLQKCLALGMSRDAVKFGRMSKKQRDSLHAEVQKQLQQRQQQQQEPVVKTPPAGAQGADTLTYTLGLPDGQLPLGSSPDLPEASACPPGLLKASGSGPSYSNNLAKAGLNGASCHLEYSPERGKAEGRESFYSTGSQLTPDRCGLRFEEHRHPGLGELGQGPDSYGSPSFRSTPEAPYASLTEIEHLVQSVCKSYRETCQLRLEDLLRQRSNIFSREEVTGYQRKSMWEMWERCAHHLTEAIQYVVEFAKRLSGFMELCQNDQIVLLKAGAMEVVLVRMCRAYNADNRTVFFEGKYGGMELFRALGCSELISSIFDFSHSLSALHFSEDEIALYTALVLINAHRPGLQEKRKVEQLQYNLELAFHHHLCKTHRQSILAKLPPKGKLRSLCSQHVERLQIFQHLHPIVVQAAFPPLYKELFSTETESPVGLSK
Put plainly: RORγt binding test using fluorescent-labeled synthetic ligand (TR-FRET). The note with it: read-out: binding inhibitory rate of fluorescent-labeled synthetic ligand to RORγt at test compound 1 μM. The procedure:
RORγt Binding Test using Fluorescent-Labeled Synthetic Ligand
The binding activity of the test compound to RORγt was measured by a time resolved fluorescence resonance energy transfer method (TR-FRET) utilizing histidine-tagged RORγt, fluorescent-labeled synthetic ligand and terbium-labeled anti-histidine tag antibody (Invitrogen). First, a test compound diluted with an assay buffer (20 mM Tris-HCl (pH 7.5), 100 mM NaCl, 1 mM DTT, 0.1% BSA) was added to a 384 well plate by 3 μL. Then, RORγt diluted with an assay buffer to 240 nM was added by 3 μL, after which fluorescent-labeled synthetic ligand diluted with the assay buffer to 12 μM was added by 3 μL, and the mixture was stood at room temperature for 20 min. Thereafter, a terbium-labeled anti-histidine tag antibody diluted with the assay buffer to 8 nM was added by 3 μL. The mixture was stood at room temperature for 20 min, and fluorescence intensity (excitation wavelength 320 nm, fluorescence wavelength 520 nm, delay time 100 microseconds) was measured by Envision (PerkinElmer).
Background: TR-FRET usually uses a lanthanide donor and a delayed reading to cut background.

Experiment [2] deals with T1, RORγt. Nature of the experiment: Cofactor recruitment test (Alpha Screen, biotinylated SRC-1 peptide). It is filed as biochemical. The following applies: read-out: signal value inhibitory rate at test compound 1 μM. The procedure: Cofactor Recruitment Test
Cofactor recruitment test was performed by Alpha Screen (Histidine Detection Kit, PerkinElmer) method. First, a test compound was diluted with an assay buffer (50 mM Tris-HCl (pH 7.5), 50 mM KCl, 1 mM DTT, 0.1% BSA) and added to a 384 well plate by 5 μL. […] The mixture was stood in a dark place for 1 hr, and the signal value was measured by Envision (PerkinElmer).

Experiment [3] deals with T1, RORγt. Nature of the experiment: Jurkat reporter test (human IL-17 ROR response element luciferase, RORγt vector). It is filed as cell-based. The following applies: test compound 3 μM, Jurkat cells, read-out: luminescence level inhibitory rate at test compound 3 μM. Here is the method:
The Jurkat cells used for the reporter test were cultured in a culture medium (RPMI (Invitrogen), 10% FCS (AusGeneX), 100 U/mL penicillin, 100 μg/mL streptomycin). On the day of the test, 4×10^7 cells were recovered by a centrifugal operation (1000 rpm, 5 min.) and suspended in PBS (phosphate buffered saline) (Invitrogen). Thereafter, the cells were recovered again by a centrifugal operation, and suspended in 2 mL of R buffer (NEON transfection kit, Invitrogen). […] Gene transfer was performed by Electroporation apparatus (NEON, Invitrogen) under the conditions of pulse voltage 1350 V, interval 10 milliseconds, number of times 3. The cells after gene transfer were suspended in 40 mL of a reaction medium (RPMI, 10% Lipid reduced FCS (HyClone), 10 mM HEPES (pH 7.5), 100 U/mL penicillin, 100 μg/mL streptomycin, 5 μM lovastatin), and plated in a 96 well plate by 90 μL. A test compound diluted with the reaction medium was added by 10 μL, and the cells were cultured overnight in an incubator. Bright-Glo (Promega) was added by 100 μL, and the mixture was stirred at room temperature for 10 min, and the luminescence level was measured by Envision (PerkinElmer).

Take `COc1ccc2c(c1)CCN(C(=O)C1CC1C(=O)O)[C@H]2C(=O)Nc1cc(F)c([Si](C)(C)C)c(F)c1` (single isomer, unassigned) [Example 3]: the values for the inhibition at 1 µM on RORγt [1] and at RORγt [2] were 102% and 84%, respectively. Further, the inhibition at 3 µM on RORγt [3] came out at 97%.

Regarding `COc1ccc2c(c1)CCN(C(=O)[C@H]1C[C@H](C(=O)O)C1)[C@H]2C(=O)Nc1cc(F)c([Si](C)(C)C)c(F)c1` [Example 12, trans-3-(((1R)-1-((3,5-difluoro-4-(trimethylsilyl)phenyl)carbamoyl)-6-methoxy-3,4-dihydroisoquinolin-2(1H)-yl)carbonyl)cyclobutanecarboxylic acid], the inhibition at 1 µM stood at 102% on RORγt [1] and 91% on RORγt [2]. Also, the inhibition at 3 µM on RORγt [3] turned out to be 99%.

Turning to `COc1ccc2c(n1)CCN(C(=O)[C@@H]1C[C@H]1CC(=O)O)[C@H]2C(=O)Nc1cc(F)c([Si](C)(C)C)c(F)c1` [Example 14, ((1S,2R)-2-(((5R)-5-((3,5-difluoro-4-(trimethylsilyl)phenyl)carbamoyl)-2-methoxy-7,8-dihydro-1,6-naphthyridin-6(5H)-yl)carbonyl)cyclopropyl)acetic acid], the inhibition at 1 µM on RORγt [1] stood at 101%; on RORγt [2], 86%. Further, the inhibition at 3 µM at RORγt [3] worked out at 100%.

With `CCOc1ccc2c(c1)CCN(C(=O)[C@H]1C[C@@H](CC(=O)O)C1)[C@H]2C(=O)Nc1cc(F)c(C(C)(C)COC)c(F)c1` [Example 17, (cis-3-(((1R)-1-((3,5-difluoro-4-(1-methoxy-2-methylpropan-2-yl)phenyl)carbamoyl)-6-ethoxy-3,4-dihydroisoquinolin-2(1H)-yl)carbonyl)cyclobutyl)acetic acid], the inhibition at 1 µM at RORγt [1] (test compound 1 μM) was 101%; at RORγt [2] (test compound 1 μM), 85%. In addition, the inhibition at 3 µM at RORγt [3] (Jurkat) amounted to 99%.

Consider `COc1ccc2c(c1)CCN(C(=O)[C@H]1C[C@H](CC(=O)O)C1)[C@H]2C(=O)Nc1cc(F)c([Si](C)(C)C)c(F)c1` [Example 27, (trans-3-(((1R)-1-((3,5-difluoro-4-(trimethylsilyl)phenyl)carbamoyl)-6-methoxy-3,4-dihydroisoquinolin-2(1H)-yl)carbonyl)cyclobutyl)acetic acid], for which the values for the inhibition at 1 µM at RORγt [1] and on RORγt [2] were 102% and 91%, respectively. The inhibition at 3 µM on RORγt [3] was 103%.

For the compound `COc1ccc2c(c1)CCN(C(=O)[C@@H]1C[C@H]1CC(=O)O)[C@H]2C(=O)Nc1cc(F)c([Si](C)(C)C)c(F)c1` [Example 30, ((1S,2R)-2-(((1R)-1-((3,5-difluoro-4-(trimethylsilyl)phenyl)carbamoyl)-6-methoxy-3,4-dihydroisoquinolin-2(1H)-yl)carbonyl)cyclopropyl)acetic acid], the inhibition at 1 µM at RORγt [1] stood at 101%; at RORγt [2], 90%. On RORγt [3], the inhibition at 3 µM worked out at 100%.

As to `COc1ccc2c(c1)CCN(C(=O)[C@H]1C[C@H](CC(=O)O)C1)[C@H]2C(=O)Nc1ccc([Si](C)(C)C)c(F)c1` [Example 34, (trans-3-(((1R)-1-((3-fluoro-4-(trimethylsilyl)phenyl)carbamoyl)-6-methoxy-3,4-dihydroisoquinolin-2(1H)-yl)carbonyl)cyclobutyl)acetic acid], the inhibition at 1 µM on RORγt [1] is 102%; at RORγt [2], 88%. For the same compound, the inhibition at 3 µM at RORγt [3] stood at 100%.

For `COCC(C)(C)c1c(F)cc(NC(=O)[C@H]2c3ccc(OC)cc3CCN2C(=O)[C@H]2C[C@@H](CC(=O)O)C2)cc1F` [Example 35, (cis-3-(((1R)-1-((3,5-difluoro-4-(1-methoxy-2-methylpropan-2-yl)phenyl)carbamoyl)-6-methoxy-3,4-dihydroisoquinolin-2(1H)-yl)carbonyl)cyclobutyl)acetic acid], the inhibition at 1 µM at RORγt [1] (test compound 1 μM) came to 102%; at RORγt [2] (test compound 1 μM) it was 83%. The inhibition at 3 µM on RORγt [3] (Jurkat) turned out to be 99%.
